In this assay the test system is herpetic infection. The assay can be described thus: Effectiveness of treating herpetic infection upon incorporation of isoleucine. Format: in vivo. The note with it: isoleucine incorporated into the composition. Here is the method: The effectiveness of treating herpetic infection increases to a considerable extent upon incorporation of isoleucine into the composition, by 10-28% as compared to control. Isoleucine may be contained in the formulation of the preparation in an amount of 0.11-0.22 g per 100 ml of composition.

Consider `CC[C@H](C)[C@H](N)C(=O)O` [isoleucine], for which the “Increase of effectiveness of treating herpetic infection as compared to control” value is 10-28%.

The values are drawn from US20080057113A1, “Pharmaceutical Anti-Herpetic Composition, Method for Producing a Dosage Form Based Thereon and Method for the Use Thereof” (priority 2003, published 2008).
